Laboratory results from patent US20090258870A1, “NOVEL ANSAMITOCIN DERIVATIVES” (priority 2008, published 2009).
≈ marks a conversion by molar mass, not a printed value.

Columns and labels:
[1] = tested on: PC-3; assay: Growth inhibition of PC-3 cells, MTT assay; assay type: cell-based, human; details: for Antiproliferative activity IC50: PC-3, prostate carcinoma, 5 days, MTT
Experimental: (§1) For the detailed evaluation of their biological profile as anti-cancer agents, cultured human tumor cell lines were treated with the new ansamitocin derivatives. In particular, the 19-fluoro-20-demethoxyansamitocin P3 (F-A), 19-chloro-20-demethoxyansamitocin P3 (Cl-A), 19-bromo-20-demethoxyansamitocin P3 (Br-A), and the 20-demethoxy-19-vinylansamitocin P3 (VI) were tested for their inhibitory effect on cell growth of different cell lines, namely KB-3-1, U-937, PC-3, SK-OV-3, A-498, A-431, and A-549, in comparison to natural biosynthesis product Ansamitocin P-3 (AP-3). Growth inhibition was measured in microtiter plates. 60 μl of serial dilutions of the test compounds were added to aliquots of 120 μl of the suspended cells (50000/ml). After 5 days the growth was determined using a MTT assay, except for U-937, where the WST-1 assay from Roche was employed.

[2] = tested on: SK-OV-3; assay: Growth inhibition of SK-OV-3 cells, MTT assay; assay type: cell-based, human; details: for Antiproliferative activity IC50: SK-OV-3, ovarian carcinoma, 5 days, MTT
Experimental: as §1

[3] = tested on: A-549; assay: Growth inhibition of A-549 cells, MTT assay; assay type: cell-based, human; details: for Antiproliferative activity IC50: A-549, lung carcinoma, 5 days, MTT
Experimental: as §1

[4] = tested on: U-937; assay: Growth inhibition of U-937 cells, WST-1 assay; assay type: cell-based, human; details: for Antiproliferative activity IC50: U-937, lymphoma, 5 days, WST-1
Experimental: as §1

[5] = tested on: A-431; assay: Growth inhibition of A-431 cells, MTT assay; assay type: cell-based, human; details: for Antiproliferative activity IC50: A-431, epidermoid carcinoma, 5 days, MTT
Experimental: as §1

[6] = tested on: A-498; assay: Growth inhibition of A-498 cells, MTT assay; assay type: cell-based, human; details: for Antiproliferative activity IC50: A-498, kidney carcinoma, 5 days, MTT
Experimental: as §1

[7] = tested on: KB-3-1; assay: Growth inhibition of KB-3-1 cells, MTT assay; assay type: cell-based, human; details: for Antiproliferative activity IC50: KB-3-1, cervix carcinoma, 5 days, MTT
Experimental: as §1

[8] = tested on: cultured human tumor cell lines; assay: Antiproliferative activity on cultured human tumor cell lines (panel, general statements); assay type: cell-based; details: in general, across the cell lines tested
Experimental: as §1

Row | Compound | Antiproliferative activity IC50 [1] [ng/mL] | Antiproliferative activity IC50 [2] [ng/mL] | Antiproliferative activity IC50 [3] [ng/mL] | Antiproliferative activity IC50 [4] [ng/mL] | Antiproliferative activity IC50 [5] [ng/mL] | Antiproliferative activity IC50 [6] [ng/mL] | Antiproliferative activity IC50 [7] [ng/mL] | relative activity among the compounds tested [8] | IC50 ([1]; Homo sapiens, PC-3, 120 h, read-out: Antiproliferative activity IC50) [ng/mL] | IC50 ([2]; Homo sapiens, SK-OV-3, 120 h, read-out: Antiproliferative activity IC50) [ng/mL] | IC50 ([3]; Homo sapiens, A549, 120 h, read-out: Antiproliferative activity IC50) [ng/mL] | IC50 ([4]; Homo sapiens, U-937, 120 h, read-out: Antiproliferative activity IC50) [ng/mL] | IC50 ([5]; Homo sapiens, A-431, 120 h, read-out: Antiproliferative activity IC50) [ng/mL] | IC50 ([6]; Homo sapiens, A498, 120 h, read-out: Antiproliferative activity IC50) [ng/mL] | IC50 ([7]; Homo sapiens, KB 3-1, 120 h, read-out: Antiproliferative activity IC50) [ng/mL]
1 | COc1cc2cc(c1Cl)N(C)C(=O)C[C@H](OC(=O)C(C)C)[C@]1(C)O[C@@H]1[C@H](C)[C@@H]1C[C@@](O)(NC(=O)O1)[C@H](OC)/C=C/C=C(\C)C2 [AP-3, Ansamitocin P-3, reference compound] | 0.035 | 0.03 | 0.1 | 0.0035 | 0.05 | 1.1 | 0.11 | – | – | – | – | – | – | – | –
2 | CO[C@@H]1/C=C/C=C(\C)Cc2ccc(Br)c(c2)N(C)C(=O)C[C@H](OC(=O)C(C)C)[C@]2(C)O[C@H]2[C@H](C)[C@@H]2C[C@@]1(O)NC(=O)O2 [Br-A, 19-bromo-20-demethoxyansamitocin P3] | 0.1 | 0.05 | 0.3 | 0.03 | 0.1 | 4 | 0.3 | – | – | – | – | – | – | – | –
3 | C=Cc1ccc2cc1N(C)C(=O)CC(OC(=O)C(C)C)C1(C)OC1C(C)C1CC(O)(NC(=O)O1)C(OC)C=CC=C(C)C2 (stereo not shown) [20-demethoxy-19-vinylansamitocin P3] | – | – | – | – | – | – | – | most active | – | – | – | – | – | – | –
4 | 19-fluoro-20-demethoxyansamitocin P3 [F-A] | 0.035 | 0.035 | 0.11 | 0.01 | 0.04 | 2 | 0.18 | most active | – | – | – | – | – | – | –
5 | C=Cc1ccc2cc1N(C)C(=O)C[C@H](OC(=O)C(C)C)[C@]1(C)O[C@H]1[C@H](C)[C@@H]1C[C@@](O)(NC(=O)O1)[C@H](OC)/C=C/C=C(\C)C2 [VI, 20-demethoxy-19-vinylansamitocin P3] | – | – | – | – | – | – | – | – | 0.1 (≈ 0.168 nM) | 0.04 (≈ 0.067 nM) | 0.14 (≈ 0.235 nM) | 0.05 (≈ 0.0838 nM) | 0.04 (≈ 0.067 nM) | 2 (≈ 3.35 nM) | 0.4 (≈ 0.67 nM)
6 | 19-chloro-20-demethoxyansamitocin P3 [Cl-A] | 0.12 | 0.1 | 0.4 | 0.035 | 0.15 | 3 | 0.35 | – | – | – | – | – | – | – | –
